Measured values from patent publication US6555580B2, “Amino- and amido-diphenyl ethers” (Bayer Aktiengesellschaft, priority 2000, dated 2003).

experiment: T3 promoter assay cell test (luciferase reporter under thyroid hormone-regulated promoter); format: cell-based; details: Homo sapiens; HepG2 luciferase reporter with thyroid hormone-responsive element; costimulator retinoic acid; incubation 48 or 72 hours; four replicates
Experimental: The activity of the compounds according to the invention can be tested for example in vitro by the known T3 promoter assay cell test which is described below.
T3 Promoter Assay Cell Test
The test is carried out with a stably transfected human HepG2 hepatocarcinoma cell which expresses a luciferase gene under the control of a thyroid hormone-regulated promoter. The vector used for the transfection has upstream of the luciferase gene a minimal thymidine kinase promoter with a thyroid hormone-responsive element (TRE) which consists of two inverted palindromes each of 12 bp and of an 8 bp spacer.
For the test, the cell cultures are seeded in Eagle's minimal essential medium in 96-well plates with the following additions: glutamine, tricine, sodium pyruvate, nonessential amino acids, insulin, selenium and transferrin. The cultures are grown at 37° C. with a 10% CO2 atmosphere for 48 hours. In serial dilutions of test substance or reference compound (triiodothyronine=T3, thyroxine=T4) and costimulator retinoic acid are added to the test cultures and the latter are incubated as previously for a further 48 or 72 hours. Each substance concentration is tested in four replicates. To determine the luciferase induced by T3 or other substances, the cells are subsequently lysed by adding a Triton- and luciferin-containing buffer and measured immediately in a luminometer. The EC50 values for each compound are calculated (see Table 1).

| SMILES | EC50 [nM] |
| --- | --- |
| CCOC(=O)C(=O)Nc1cc(C)c(Oc2ccc(O)c(NC(=O)CCc3ccccc3)c2)c(C)c1 [Example 8, Ethyl (4-{4-hydroxy-3-[(3-phenylpropanoyl)amino]phenoxy}-3,5-dimethylanilino)(oxo)acetate] | 20 |
| CCOC(=O)C(=O)Nc1cc(C)c(Oc2ccc(O)c(C(=O)N(C)C3CCCCC3)c2)c(C)c1 [Example 16, Ethyl [4-(3-{[cyclohexyl(methyl)amino]carbonyl}-4-hydroxyphenoxy)-3,5-dimethylanilino](oxo)acetate] | 28 |
| CCCN(Cc1ccccc1)Cc1cc(Oc2c(C)cc(NC(=O)C(=O)OCC)cc2C)ccc1O [Example 29] | 2.4 |
| CCOC(=O)C(=O)Nc1cc(C)c(Oc2ccc(O)c(CN(Cc3ccccc3)Cc3ccccc3)c2)c(C)c1 [Example 54] | 6.7 |
| CCCCCCCC(=O)N(Cc1cc(Oc2c(C)cc(NC(=O)C(=O)OCC)cc2C)ccc1O)c1ccc(F)cc1 [Example 122] | 55 |
| CCOC(=O)C(=O)Nc1cc(C)c(Oc2ccc(O)c(NC(=O)C(C)Oc3ccc(Cl)cc3C)c2)c(C)c1 (centres unmarked) [Example 190] | 14 |
| Cc1cc(N)cc(C)c1Oc1ccc(O)c(NC(=O)NC(C)c2ccccc2)c1 (centres unmarked) [Example 204] | 61 |
| CCOC(=O)C(=O)Nc1cc(C)c(Oc2ccc(O)c(C(=O)NC(CC)c3ccccc3)c2)c(C)c1 (centres unmarked) [Example 260] | 12 |
